# Where a name gives a salt, the structure may show the parent alone. Read-outs that look alike come from different tables or passages of the source.
# What was measured:
# Human DYRK1B = molecular target: T1, Human DYRK1B (Homo sapiens, UniProt Q9Y463); experiment: DYRK1B Kinase TR-FRET (IMAP-Tb) Assay; assay type: biochemical; details: TR-FRET (IMAP-Tb); ATP 70 μM; 37° C. 60 minutes; read-out: Enzyme IC50 (μM) DYRK1B
# T1 construct: purchased Invitrogen PR8350B (former PV4649)
# [1] = system: SW620 human colon cancer cells; experiment: SW620 Cell Viability Assay; assay type: cell-based; details: CellTiter-Glo, 4 days incubation, read-out: Cellular EC50 (μM) SW620
# Protocol: Some cells (S—) were allowed to attach for 24 hrs, serum starved for 48 hrs, and then followed with drug treatments Test Compound Solutions were Prepared in Regular Corresponding Media Supplemented with Serum 2. […] Viability Assay: This assay was performed as follows: • Transfer 50 μL of test compound solution per well from the test compound plate onto the cell plate prepared in Step #1. • Mix the plate with treated cells by pipetting up and down three times with 200 μL multi-channel pipette. • Incubate the cells in 5% CO2 incubator @ 37° C. for 4 days. • Run the CellTiter-Glo™ Luminescent Cell Viability Assay.
# Human DYRK1A = molecular target: T2, Human DYRK1A (Homo sapiens, UniProt Q13627); experiment: DYRK1A Kinase TR-FRET (IMAP-Tb) Assay; assay type: biochemical; details: TR-FRET (IMAP-Tb); ATP 70 μM; 37° C. 60 minutes; read-out: Enzyme IC50 (μM) DYRK1A
# T2 construct: purchased Invitrogen PV3997
# Method in brief: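 Recombinant human DYRK1A phosphorylated fluorescent substrate peptide (1.0 μM) with ATP in 10 mM HEPES pH 7.0, 50 mM NaCl, 5 mM MgCl2, 1 mM DTT, 1 mM NaVO4, 0.02% BSA for 60 min at 37 °C. Phosphopeptide detected by IMAP terbium TR-FRET; IC50 reported.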
# T1 sequence (Q9Y463 whole entry): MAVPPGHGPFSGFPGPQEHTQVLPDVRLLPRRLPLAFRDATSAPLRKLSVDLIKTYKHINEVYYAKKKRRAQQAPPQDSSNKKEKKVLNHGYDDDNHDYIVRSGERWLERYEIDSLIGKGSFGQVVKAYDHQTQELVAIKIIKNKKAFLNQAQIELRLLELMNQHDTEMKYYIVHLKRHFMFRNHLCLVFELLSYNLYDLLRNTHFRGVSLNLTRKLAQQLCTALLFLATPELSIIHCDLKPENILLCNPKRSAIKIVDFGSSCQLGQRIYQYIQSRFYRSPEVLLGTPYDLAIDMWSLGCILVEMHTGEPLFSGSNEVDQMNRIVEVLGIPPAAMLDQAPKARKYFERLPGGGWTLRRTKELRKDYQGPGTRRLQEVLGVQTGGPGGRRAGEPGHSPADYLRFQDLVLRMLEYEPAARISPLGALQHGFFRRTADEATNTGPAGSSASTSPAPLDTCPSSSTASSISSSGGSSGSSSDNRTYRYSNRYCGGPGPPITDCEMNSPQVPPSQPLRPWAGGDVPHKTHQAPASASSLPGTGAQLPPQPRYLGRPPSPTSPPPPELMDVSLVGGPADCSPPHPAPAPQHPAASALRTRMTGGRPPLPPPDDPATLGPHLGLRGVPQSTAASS
smiles,measurement,setting,value
"O=C(NCc1cccc(Cl)c1)c1ccc(Cl)c(NC(=O)c2cc3cnc(NCCN4CCCC4)nc3[nH]c2=O)c1 [Example 89, 7-Oxo-2-(2-pyrrolidin-1-yl-ethylamino)-7,8-dihydro-pyrido[2,3-d]pyrimidine-6-carboxylic acid [2-chloro-5-(3-chloro-benzylcarbamoyl)-phenyl]amide]",IC50,Human DYRK1B,0.023 µM
same,EC50,"[1]; Homo sapiens, SW-620, 96 h",0.192 µM
same,IC50,Human DYRK1A,0.0189 µM
"O=C(NCc1cccc(Cl)c1)c1ccc(Cl)c(NC(=O)c2cc3cnc(NCCCN4CCOCC4)nc3[nH]c2=O)c1 [Example 90, 2-(3-Morpholin-4-yl-propylamino)-7-oxo-7,8-dihydro-pyrido[2,3-d]pyrimidine-6-carboxylic acid [2-chloro-5-(3-chloro-benzylcarbamoyl)-phenyl]amide]",IC50,Human DYRK1B,0.0523 µM
same,EC50,"[1]; Homo sapiens, SW-620, 96 h",0.312 µM
same,IC50,Human DYRK1A,0.0113 µM
"O=C(NCc1cccc(Cl)c1)c1ccc(Cl)c(NC(=O)c2cc3cnc(N[C@H]4CC[C@H](O)CC4)nc3[nH]c2=O)c1 [Example 94, 2-(4-Hydroxy-cyclohexylamino)-7-oxo-7,8-dihydro-pyrido[2,3-d]pyrimidine-6-carboxylic acid [2-chloro-5-(3-chloro-benzylcarbamoyl)-phenyl]amide]",IC50,Human DYRK1B,0.0622 µM
same,EC50,"[1]; Homo sapiens, SW-620, 96 h",1.13 µM
same,IC50,Human DYRK1A,0.0245 µM
"O=C(NCc1cccc(Cl)c1)c1ccc(Cl)c(NC(=O)c2cc3cnc(N[C@H]4CC[C@@H](O)CC4)nc3[nH]c2=O)c1 [Example 95, 2-(4-Hydroxy-cyclohexylamino)-7-oxo-7,8-dihydro-pyrido[2,3-d]pyrimidine-6-carboxylic acid [2-chloro-5-(3-chloro-benzylcarbamoyl)-phenyl]amide]",IC50,Human DYRK1B,0.012 µM
same,EC50,"[1]; Homo sapiens, SW-620, 96 h",0.406 µM
same,IC50,Human DYRK1A,0.0257 µM
"NC1CCN(c2ncc3cc(C(=O)Nc4cc(C(=O)NCc5cccc(Cl)c5)ccc4Cl)c(=O)[nH]c3n2)CC1 [Example 97, 2-(4-Amino-piperidin-1-yl)-7-oxo-7,8-dihydro-pyrido[2,3-d]pyrimidine-6-carboxylic acid [2-chloro-5-(3-chloro-benzylcarbamoyl)-phenyl]-amide]",IC50,Human DYRK1B,0.0819 µM
same,EC50,"[1]; Homo sapiens, SW-620, 96 h",0.0662 µM
same,IC50,Human DYRK1A,0.0448 µM
"CN1CCN(CCNc2ncc3cc(C(=O)Nc4cc(C(=O)NCc5cccc(Cl)c5)ccc4Cl)c(=O)[nH]c3n2)CC1 [Example 99, 2-[2-(4-Methyl-piperazin-1-yl)-ethylamino]-7-oxo-7,8-dihydro-pyrido[2,3-d]pyrimidine-6-carboxylic acid [2-chloro-5-(3-chloro-benzylcarbamoyl)-phenyl]amide]",IC50,Human DYRK1B,0.0347 µM
same,EC50,[1],0.0276 µM
same,IC50,Human DYRK1A,0.0202 µM
"CN1CCN(CCNc2ncc3cc(C(=O)Nc4cc(C(=O)NCc5cccc(Cl)c5)ccc4Cl)c(=O)[nH]c3n2)CC1 [Example 100, N-(2-chloro-5-(3-chlorobenzylcarbamoyl)phenyl)-2-(2-(4-methylpiperazin-1-yl)ethylamino)-7-oxo-7,8-dihydropyrido[2,3-d]pyrimidine-6-carboxamide hydrochloride]",IC50,Human DYRK1B,0.142 µM
same,EC50,[1]; hydrochloride,0.068 µM
same,IC50,Human DYRK1A,0.0381 µM
"CN1CCN(CCCNc2ncc3cc(C(=O)Nc4cc(C(=O)NCc5cccc(Cl)c5)ccc4Cl)c(=O)[nH]c3n2)CC1 [Example 101, 2-[3-(4-Methyl-piperazin-1-yl)-propylamino]-7-oxo-7,8-dihydro-pyrido[2,3-d]pyrimidine-6-carboxylic acid [2-chloro-5-(3-chloro-benzylcarbamoyl)-phenyl]amide]",IC50,Human DYRK1B,0.0221 µM
same,EC50,"[1]; Homo sapiens, SW-620, 96 h",0.0663 µM
same,IC50,Human DYRK1A,0.0263 µM
"CN1CCN(CCCNc2ncc3cc(C(=O)Nc4cc(C(=O)NCc5cccc(Cl)c5)ccc4Cl)c(=O)[nH]c3n2)CC1 [Example 102, 2-[3-(4-Methyl-piperazin-1-yl)-propylamino]-7-oxo-7,8-dihydro-pyrido[2,3-d]pyrimidine-6-carboxylic acid [2-chloro-5-(3-chloro-benzylcarbamoyl)-phenyl]-amide hydrochloride]",IC50,Human DYRK1B,0.047 µM
same,EC50,[1]; hydrochloride,0.0531 µM
same,IC50,Human DYRK1A,0.0356 µM
"O=C(NCc1cccc(Cl)c1)c1ccc(Cl)c(NC(=O)c2cc3cnc(NCCO)nc3[nH]c2=O)c1 [Example 103, N-(2-chloro-5-(3-chlorobenzylcarbamoyl)phenyl)-2-(2-hydroxyethylamino)-7-oxo-7,8-dihydropyrido[2,3-d]pyrimidine-6-carboxamide]",IC50,Human DYRK1B,0.0291 µM
same,EC50,"[1]; Homo sapiens, SW-620, 96 h",> 10 µM
same,IC50,Human DYRK1A,0.00974 µM
"CN1CCC(CCNc2ncc3cc(C(=O)Nc4cc(C(=O)NCc5cccc(Cl)c5)ccc4Cl)c(=O)[nH]c3n2)CC1 [Example 104, N-(2-chloro-5-(3-chlorobenzylcarbamoyl)phenyl)-2-(2-(1-methylpiperidin-4-yl)ethylamino)-7-oxo-7,8-dihydropyrido[2,3-d]pyrimidine-6-carboxamide]",IC50,Human DYRK1B,0.0613 µM
same,EC50,"[1]; Homo sapiens, SW-620, 96 h",0.0787 µM
same,IC50,Human DYRK1A,0.0226 µM
"CSc1ncc2cc(C(=O)Nc3cc(C(=O)NC(CN)c4ccccc4)ccc3Cl)c(=O)[nH]c2n1 (stereo not drawn) [Example 105, N-(5-(2-amino-1-phenylethylcarbamoyl)-2-chlorophenyl)-2-(methylthio)-7-oxo-7,8-dihydropyrido[2,3-d]pyrimidine-6-carboxamide]",IC50,Human DYRK1B,0.0099 µM
same,EC50,"[1]; Homo sapiens, SW-620, 96 h",0.296 µM
same,IC50,Human DYRK1A,0.0096 µM
"CSc1ncc2cc(C(=O)Nc3cc(C(=O)NC(CCN)c4ccccc4)ccc3Cl)c(=O)[nH]c2n1 (stereo not drawn) [Example 107, 2-Methylsulfanyl-7-oxo-7,8-dihydro-pyrido[2,3-d]pyrimidine-6-carboxylic acid [5-(3-amino-1-phenyl-propylcarbamoyl)-2-chloro-phenyl]-amide; hydrochloride]",IC50,Human DYRK1B,0.0105 µM
same,EC50,"[1]; Homo sapiens, SW-620, 96 h",0.236 µM
same,IC50,Human DYRK1A,0.00467 µM
"CC(=O)N1CCN(c2ncc3cc(C(=O)Nc4cc(C(=O)NCc5cccc(Cl)c5)ccc4Cl)c(=O)[nH]c3n2)CC1 [Example 108, 2-(4-Acetylpiperazin-1-yl)-N-(2-chloro-5-(3-chlorobenzylcarbamoyl)phenyl)-7-oxo-7,8-dihydropyrido[2,3-d]pyrimidine-6-carboxamide]",IC50,Human DYRK1B,0.056 µM
same,EC50,"[1]; Homo sapiens, SW-620, 96 h",0.528 µM
same,IC50,Human DYRK1A,0.114 µM
"Cc1ncc2cc(C(=O)Nc3cc(C(=O)NC(CN)c4ccccc4)ccc3Cl)c(=O)[nH]c2n1 (stereo not drawn) [Example 114, N-(5-(2-Amino-1-phenylethylcarbamoyl)-2-chlorophenyl)-2-methyl-7-oxo-7,8-dihydropyrido[2,3-d]pyrimidine-6-carboxamide hydrochloride]",IC50,Human DYRK1B,0.0146 µM
same,EC50,"[1]; Homo sapiens, SW-620, 96 h",1.32 µM
same,IC50,Human DYRK1A,0.0373 µM
"N[C@H]1CC[C@@H](Nc2ncc3cc(C(=O)Nc4cc(C(=O)NCc5cccc(Cl)c5)ccc4Cl)c(=O)[nH]c3n2)CC1 [Example 118, 2-((1s,4 s)-4-Aminocyclohexylamino)-N-(2-chloro-5-(3-chlorobenzylcarbamoyl)phenyl)-7-oxo-7,8-dihydropyrido[2,3-d]pyrimidine-6-carboxamide hydrochloride]",IC50,Human DYRK1B,0.0767 µM
same,EC50,"[1]; Homo sapiens, SW-620, 96 h",0.438 µM
same,IC50,Human DYRK1A,0.0569 µM
"O=C(NCc1cccc(Cl)c1)c1ccc(Cl)c(NC(=O)c2cc3cnc(N4CCNCC4)nc3[nH]c2=O)c1 [Example 119, N-(2-Chloro-5-(3-chlorobenzylcarbamoyl)phenyl)-7-oxo-2-(piperazin-1-yl)-7,8-dihydropyrido[2,3-d]pyrimidine-6-carboxamide hydrochloride]",IC50,Human DYRK1B,0.135 µM
same,EC50,"[1]; Homo sapiens, SW-620, 96 h",0.152 µM
same,IC50,Human DYRK1A,0.044 µM

# Source: US20120184542A1, “PYRIDO PYRIMIDINES” (priority 2011, published 2012)
